# Data from patent US11103525B2, “Idoxuridine and its analogs as neuroprotectans for the treatment of parkinsonism” (priority 2017, dated 2021).
# Tests used:
# Format in all cases: cell-based, mouse
# [1] = tested on: N2a-GPR37-tGFP cells; test: Cytoprotection against 6-OHDA (MTT assay), N2a-GPR37-tGFP cells; settings: 2 μM pretreatment 72 h, then 6-OHDA 24 h; compared with N2a-WT cells
# Method: FIG. 6. GPR37-associated cytoprotection of Idoxuridine against parkinsonian drug 6-OHDA. N2a-WT and N2a-GPR37-tGFP cells were grown in differentiating medium containing either 2 μM idoxuridine, 0.1% DMSO (negative control) or 1 mM dbcAMP (positive control). 72 h later cells were treated with either 6-OHDA (10, 20, 35 100 μM) or vehicle control and incubated for 24 h. Cell viability was quantified by MTT assay. Data are pooled from three independent experiments with 6 technical replicates for each condition and are expressed as means+/−SD. To assess the […] effect of idoxuridine against 6-OHDA-toxicity data were analyzed using a 2-way ANOVA followed by a Bonferroni correction test. Each cell line was statistically analyzed separately, with pretreatment and 6-OHDA treatment as variables; or GPR37 expression and 6-OHDA-treatment as variables. For simplicity, only idoxuridine related significance is indicated; significances between positive and negative controls are not shown; ****p<0.0001, ***p<0.001, **p<0.01. Test compound (5 μL) of desired concentration (Idoxuridine, final concentration 2 μM); positive control (dibutyryl-cAMP, final concentration 1 mM); and negative control (DMSO, final concentration 0.1%) were plated in a 96-well plate. […] Absorbance was measured at 570 nm (formazan product) and at 650 nm (reference) using a Tecan Spark® 10M microplate reader. […]
# [2] = tested on: WT cells; test: Cytoprotection against Eeyarestatin (EeI), WT cells
# Method: (§1) FIG. 9: Cytoprotection of Idoxuridine against Eel. Eeyarestatin (Eel) is a potent inhibitor of endoplasmic reticulum associated protein degradation (ERAD) pathway, specifically targeting p97. Eel-mediated reduction of cell viability is counteracted by idoxuridine in both GPR37-tGFP overexpressing cells (A) and WT (B) cells. Data represented as mean+SD. Analysis performed via one-way ANOVA with Neuman-Keuls post-test for both Figures. *** indicates p<0.001.
# (§2) Eeyarestatin (EeI) is a potent inhibitor of endoplasmic reticulum associated protein degradation (ERAD) pathway, specifically targeting p97.
# [3] = tested on: GPR37-tGFP overexpressing cells; test: Cytoprotection against Eeyarestatin (EeI), GPR37-tGFP overexpressing cells
# Method: as §1, §2
smiles,measurement,setting,value
"O=c1[nH]c(=O)n([C@H]2C[C@H](O)[C@@H](CO)O2)cc1I [Idoxuridine, 2′-deoxy-5-iodouridine]","cytoprotective effect against 6-OHDA (cell viability, MTT)",[1],significantly higher effect
same,effect on EeI-mediated reduction of cell viability,[2],counteracted
same,effect on EeI-mediated reduction of cell viability,[3],counteracted
